Data reported in patent US20080318070A1, “Water-Soluble Preflux and Usage of the Same” (SHIKOKU CHEMICALS CORPORATION, priority 2005, published 2008).

Experiments:
[1] = Solubilization test of imidazole compounds; format: physicochemical; settings: 0.20 g imidazole compound dissolved in 2.0 g carboxylic acid compound; ion-exchange water added until solution became clouded; larger = better solubilization
Experimental: Solubilization Test of Imidazole Compounds
After 0.20 g of 2-pheny-(3,4-dichlorophenyl)imidazole was dissolved in 2.0 g of the carboxylic acid compound for use in the invention, there was measured an amount of water required until the solution became clouded when ion-exchange water was added. The larger amount of water is judged to be more excellent in imidazole compound-solubilization performance of the carboxylic acid compound.
It is recognized that a chemical structure wherein an alkoxy group (R^1—O—) and a carboxymethyl group (—CH2COOH) or a carboxyethyl group (—C2H4COOH) is combined via an alkylene ether chain (—CH2CH(R^2)—O—) enhances the imidazole compound-solubilization performance.

[2] = reported; cited from earlier work

Structure (SMILES)	Amount of water added [1] [mL]	metabolism in the living body [2]	toxic effect [2]
CCCCOCC(=O)O [2-(n-Butoxy)acetic acid]	1.0	–	–
CCCOCC(=O)O [2-(n-Propoxy)acetic acid]	2.8	–	–
CCOCC(=O)O [Compound A, 2-Ethoxyacetic acid]	3.3	–	–
CCOCCOCCOCC(=O)O [Compound C, 2-[2-(2-ethoxyethoxy)ethoxy]acetic acid]	3.6	–	–
CCCOCC(C)OCC(C)OCC(=O)O (centres unmarked) [Compound F, 2-[2-(2-propoxy-1-methylethoxy)-1-methylethoxy]acetic acid]	3.0	–	–
CCCCOCC(C)OCC(C)OCC(C)OCC(=O)O (centres unmarked) [Compound G, 2-{2-[2-(2-butoxy-1-methylethoxy)-1-methylethoxy]-1-methylethoxy}acetic acid]	2.0	–	–
COCC(=O)O [methoxyacetic acid]	–	difficult to metabolize in the living body	causing testicular atrophy or teratogenicity
